Experiments:
GCPII = tested on: GCPII; set-up: method as in PMID 23169655, PMID 26826008; conditions: ref [8], [9]; cited from earlier work
EAE mice = conditions: cited from earlier work
[1] = cited from earlier work
[2] = target: human recombinant GCPII enzyme (Homo sapiens, UniProt Q04609); experiment: GCPII activity assay (IC50), NAA-[3H]-G hydrolysis; format: biochemical; conditions: human recombinant GCPII 40 pM, NAA-[3H]-G 30 nM, 37 °C, 20 min
Sequence of human recombinant GCPII enzyme (Q04609 whole entry): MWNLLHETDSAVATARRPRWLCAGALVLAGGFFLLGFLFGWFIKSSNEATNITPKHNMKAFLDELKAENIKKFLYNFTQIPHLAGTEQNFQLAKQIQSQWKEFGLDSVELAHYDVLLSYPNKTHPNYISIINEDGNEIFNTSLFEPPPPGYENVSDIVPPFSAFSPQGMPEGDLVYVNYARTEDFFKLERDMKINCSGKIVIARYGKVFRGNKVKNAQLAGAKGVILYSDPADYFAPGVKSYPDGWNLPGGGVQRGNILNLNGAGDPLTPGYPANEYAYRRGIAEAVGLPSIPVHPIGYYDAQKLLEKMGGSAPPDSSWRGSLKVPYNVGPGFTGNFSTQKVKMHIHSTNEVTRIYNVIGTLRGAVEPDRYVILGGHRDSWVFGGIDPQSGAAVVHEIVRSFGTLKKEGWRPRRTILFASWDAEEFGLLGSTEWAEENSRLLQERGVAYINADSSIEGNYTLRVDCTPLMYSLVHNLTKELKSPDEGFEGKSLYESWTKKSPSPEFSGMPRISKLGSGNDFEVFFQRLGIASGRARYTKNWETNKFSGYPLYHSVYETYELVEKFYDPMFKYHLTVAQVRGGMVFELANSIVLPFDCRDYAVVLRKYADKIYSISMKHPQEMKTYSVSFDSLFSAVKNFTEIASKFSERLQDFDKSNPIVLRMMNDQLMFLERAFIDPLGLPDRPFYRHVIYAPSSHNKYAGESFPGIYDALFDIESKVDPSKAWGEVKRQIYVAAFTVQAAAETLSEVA
Procedure: The reactions were carried out at 37 °C for 20 minutes and stopped with ice-cold sodium phosphate buffer containing 1mM EDTA (pH 7.4, 0.1 M, 50 µL). 90 µL aliquots from each terminated reaction was then transferred to 96-well spin columns containing AG1X8 ion-exchange resin and the plate centrifuged at 990 rpm for 5 minutes using a Beckman GS-6R centrifuge equipped with a PTS-2000 rotor. NAA-[^3H]-G was bound to the resin and [^3H]-G eluted in the flow through. To ensure complete elution of [^3H]-G, columns were washed twice with formate (1 M, 90 µL). The flow through and the washes were collected and 200 µL aliquots transferred to a solid scintillator-coated 96-well plate (Packard) and dried to completion. The radioactivity corresponding to [^3H]-G was determined with a scintillation counter (Topcount NXT, Packard, counting efficiency 80%). Subsequently, IC50 curves were generated from CPM results, using both Microsoft Office Excel 2016 and IDBS's XLfit 5.5.0.5 macro embedded within Excel.

| IC50 [2] [pM] | SMILES | IC50 (GCPII) [pM] | effect on EAE disease score (EAE mice; free 2-PMPA treatment, ref [8], [9]) | minimal dose required for positive behavioral effects and alterations in brain NAAG levels (EAE mice; previous dose response studies, ref [9]) [mg/kg] | clearance from circulation ([1]; free drug, ref [9]) | brain penetration (AUCbrain/AUCplasma) ([1]; ref [37]) | oral bioavailability (F) ([1]; ref [37]) [%] |
| --- | --- | --- | --- | --- | --- | --- | --- |
| – | O=C(O)CCC(CP(=O)(O)O)C(=O)O (stereo not shown) [2-PMPA, 2-(phosphonomethyl)-pentanedioic acid] | […] | no effect on EAE disease score | […] | cleared from circulation within six hours | < 0.02 | < 2 |
| 1600 | [N-]=[N+]=NCCOCCOCCOCCOCCOCCOCCOCCOCCOCCOCCOC(=O)CCC(CP(=O)(O)O)C(=O)O (stereo not shown) [2-PMPA-PEG-azide] | – | – | – | – | – | – |
